Data: ChEMBL document CHEMBL1146436, “Bioactive alkaloids from Illigera luzonensis” (1997)
The source made the active and inactive calls. The calls are words filed in the database; no cut-off is given here.

Columns and labels:
Aorta [1] = assay: Vasorelaxant activity against 80 mM potassium-induced contractions in rat thoracic aorta assessed as muscle contractions at 1 uM pretreated for 15 mins before potassium administration relative to control; type: functional; set-up: scale not given: the % may be the effect or the level left
Aorta [2] = assay: Vasorelaxant activity against 3 uM norepinephrine -induced phasic contractions in rat thoracic aorta assessed as muscle contractions at 100 ug/mL pretreated for 15 mins before norepinephrine administration relative to control; type: functional; set-up: scale not given: the % may be the effect or the level left
Aorta [3] = assay: Vasorelaxant activity against 3 uM norepinephrine -induced tonic contractions in rat thoracic aorta assessed as muscle contractions at 100 ug/mL pretreated for 15 mins before norepinephrine administration relative to control; type: functional; set-up: scale not given: the % may be the effect or the level left
Aorta [4] = assay: Effect on resting tension in rat thoracic aorta at 100 ug/mL pretreated for 15 mins; type: functional, tissue-based
Aorta [5] = assay: Vasorelaxant activity against 80 mM potassium-induced contractions in rat thoracic aorta assessed as muscle contractions at 100 ug/mL pretreated for 15 mins before potassium administration relative to control; type: functional; set-up: scale not given: the % may be the effect or the level left
[6] = Antiplatelet activity against arachidonic acid-induced rabbit platelet aggregation assessed as platelet aggregation at 2 ug/ml preincubated for 3 mins by turbidimetric method relative to control; type: functional, Oryctolagus cuniculus
[7] = Antiplatelet activity against arachidonic acid-induced rabbit platelet aggregation assessed as platelet aggregation at 100 ug/ml preincubated for 3 mins by turbidimetric method relative to control; type: functional, Oryctolagus cuniculus
[8] = Antiplatelet activity against arachidonic acid-induced rabbit platelet aggregation assessed as platelet aggregation at 20 ug/ml preincubated for 3 mins by turbidimetric method relative to control; type: functional, Oryctolagus cuniculus
[9] = Antiplatelet activity against arachidonic acid-induced rabbit platelet aggregation assessed as platelet aggregation at 5 ug/ml preincubated for 3 mins by turbidimetric method relative to control; type: functional, Oryctolagus cuniculus
[10] = Antiplatelet activity against arachidonic acid-induced rabbit platelet aggregation assessed as platelet aggregation at 10 ug/ml preincubated for 3 mins by turbidimetric method relative to control; type: functional, Oryctolagus cuniculus
[11] = Antiplatelet activity against ADP-induced rabbit platelet aggregation assessed as platelet aggregation at 100 ug/ml preincubated for 3 mins by turbidimetric method relative to control; type: functional, Oryctolagus cuniculus
[12] = Antiplatelet activity against collagen-induced rabbit platelet aggregation assessed as platelet aggregation at 100 ug/ml preincubated for 3 mins by turbidimetric method relative to control; type: functional, Oryctolagus cuniculus
[13] = Antiplatelet activity against PAF-induced rabbit platelet aggregation assessed as platelet aggregation at 100 ug/ml preincubated for 3 mins by turbidimetric method relative to control; type: functional, Oryctolagus cuniculus
[14] = Antiplatelet activity against PAF-induced rabbit platelet aggregation assessed as platelet aggregation at 25 ug/ml preincubated for 3 mins by turbidimetric method relative to control; type: functional, Oryctolagus cuniculus
[15] = Antiplatelet activity against arachidonic acid-induced rabbit platelet aggregation assessed as platelet aggregation at 25 ug/ml preincubated for 3 mins by turbidimetric method relative to control; type: functional, Oryctolagus cuniculus
[16] = Antiplatelet activity against collagen-induced rabbit platelet aggregation assessed as platelet aggregation at 25 ug/ml preincubated for 3 mins by turbidimetric method relative to control; type: functional, Oryctolagus cuniculus
[17] = Antiplatelet activity against ADP-induced rabbit platelet aggregation assessed as platelet aggregation at 25 ug/ml preincubated for 3 mins by turbidimetric method relative to control; type: functional, Oryctolagus cuniculus
Aorta [18] = assay: Vasorelaxant activity against 3 uM norepinephrine -induced tonic contractions in rat thoracic aorta assessed as muscle contractions at 1 uM pretreated for 15 mins before norepinephrine administration relative to control; type: functional; set-up: scale not given: the % may be the effect or the level left
Aorta [19] = assay: Vasorelaxant activity against 3 uM norepinephrine -induced phasic contractions in rat thoracic aorta assessed as muscle contractions at 1 uM pretreated for 15 mins before norepinephrine administration relative to control; type: functional; set-up: scale not given: the % may be the effect or the level left
[20] = Antiplatelet activity against arachidonic acid-induced rabbit platelet aggregation assessed as platelet aggregation at 1 ug/ml preincubated for 3 mins by turbidimetric method relative to control; type: functional, Oryctolagus cuniculus
[21] = Antiplatelet activity against arachidonic acid-induced rabbit platelet aggregation assessed as platelet aggregation at 50 ug/ml preincubated for 3 mins by turbidimetric method relative to control; type: functional, Oryctolagus cuniculus

| Compound | Activity [7] | Activity [8] | Activity [9] | Activity [10] | Activity [11] | Activity [12] | Activity [13] | other results |
| --- | --- | --- | --- | --- | --- | --- | --- | --- |
| COC(=O)C1=C(C)NC(C)=C(C(=O)OC)C1c1ccccc1[N+](=O)[O-] [NIFEDIPINE] | – | – | – | – | – | – | – | Activity (Aorta [1]): 0% |
| COc1cc2c(cc1OC)-c1c3c(cc4ccnc(c14)C2=O)OCO3 [DICENTRINONE] | – | – | – | – | – | – | – | Activity (Aorta [2]): 89.7%; Activity (Aorta [3]): 64%; Activity (Aorta [4]): inactive; Activity (Aorta [5]): 111.1% |
| COc1cc2c(cc1OC)-c1c3c(cc4c1[C@H](C2)N(C)CC4)OCO3 [DICENTRINE] | 0% | 0% | 77.7% | 55.1% | 4% | 3.2% | 7.6% | Activity [6]: 83.4% |
| O=C1c2ccccc2-c2c3c(cc4ccnc1c24)OCO3 [LIRIODENINE] | – | – | – | – | – | – | – | Activity [14]: 84.1%; Activity [15]: 40.5%; Activity [16]: 5.3%; Activity [17]: 5.4% |
| COc1ccc2c(c1O)-c1c3c(cc4c1[C@H](C2)NCC4)OCO3 [LAUNOBINE] | 11.8% | – | – | – | 84.2% | 29.9% | 70.7% | – |
| COc1c(O)ccc2c1-c1c(OC)c(O)cc3c1[C@H](C2)NCC3 [HERNOVINE] | 47% | – | – | – | 87.2% | 0% | 64.1% | – |
| COc1cc2nc(N3CCN(C(=O)c4ccco4)CC3)nc(N)c2cc1OC [PRAZOSIN] | – | – | – | – | – | – | – | Activity (Aorta [18]): 0%; Activity (Aorta [19]): 0% |
| CC(=O)Oc1ccccc1C(=O)O [ASPIRIN] | 0% | – | – | – | – | – | – | Activity [14]: 90.4%; Activity [15]: 0%; Activity [16]: 87.8%; Activity [17]: 77.9% |
| COc1cc2c(cc1O)C[C@H]1c3c(cc4c(c3-2)OCO4)CCN1C [CASSYTHICINE] | 0% | 0% | 51.4% | 16.2% | 0% | 0% | 68.1% | Activity [6]: 69.1%; Activity [20]: 82.5%; Activity (Aorta [2]): 225%; Activity (Aorta [3]): 98.9%; Activity (Aorta [5]): 112.9% |
| COc1ccc2c(c1OC)-c1c3c(cc4c1[C@H](C2)N(C)CC4)OCO3 | 0% | 50.4% | 83.4% | 72.5% | 47.9% | 0% | 75.1% | Activity [21]: 0% |
| COc1ccc2c(c1O)-c1c3c(cc4c1[C@H](C2)N(C)CC4)OCO3 [(S)-BULBOCAPNINE] | 89.3% | – | – | – | 86.8% | 83.2% | 86.6% | – |
| COc1cc2c(cc1O)C[C@@H]1NCCc3cc4c(c-2c31)OCO4 [ACTINODAPHNINE] | 0% | 42.7% | 80.3% | 60.5% | 0% | 0% | 0% | Activity [21]: 0%; Activity (Aorta [2]): 40.6%; Activity (Aorta [3]): 15.5%; Activity (Aorta [4]): inactive; Activity (Aorta [5]): 41.9% |
